Data on three compounds can be found in US7642249B2, “Dihydrogen phosphate salt of a prostaglandin D2 receptor antagonist” (Aventis Pharmaceuticals Inc., priority 2005, dated 2010).

Common to all, as to format: physicochemical
A short description of series [1]: Solubility in phosphate buffer (PBS pH 7.4). On the procedure:
(§1) The dihydrogen phosphate salt has increased aqueous solubility over the free form and the hydrochloride salt. The following chart lists the solubilities of the free form, the hydrochloride salt and the dihydrogen phosphate salt at 25° C. in phosphate buffer (PBS pH 7.4, a mixture of 19% of a 0.1M monobasic sodium phosphate solution and 81% of a 0.1M dibasic sodium phosphate solution) and the solubilities of the free form and the dihydrogen phosphate salt 37° C. in a simulated intestinal fluid under fasted conditions (“FaSSIF”, prepared according to Dressman J. B., Amidon G. L., Reppas C. and Shah V. P., Dissolution testing as a prognostic tool for oral drug absorption: immediate release dosage forms, Pharmaceutical Research: 1998, Vol. 15, No. 1, 11-22).

Series [2] in a line: Solubility in simulated intestinal fluid under fasted conditions (FaSSIF). The procedure: as §1
A short description of series [3]: Dynamic water vapor sorption (DVS) hygroscopicity. Conditions: at 94% relative humidity (RH). The procedure: Dynamic Water Vapor Sorption (DVS)
The water sorption profile is determined using a SMS Instruments Dynamic Vapor Sorption Analyzer Model DVS-1 or VTI Instruments Model SGA-100 Dynamic Vapor Sorption Analyzer. RH and weight are calibrated using standards. The dihydrogen phosphate salt is loaded and dried at ≦1% RH for 2.5 hours prior to starting the experiment. The RH is stepped from about 0 to 95% RH. The specimen weight is considered constant at each step when percent mass change is less than 0.005% over a 5-minute interval with a minimum absolute equilibration time of 15 minutes.

Converted amounts (≈) assume the structure as drawn. Where a name gives a salt, the structure may show the parent alone. Where only a bound is given, the exact number is not on record here.

Consider `COc1nc(NCCc2ccc(Cl)cc2Cl)cc(-c2cccc(C(C)(C)C(=O)O)c2)n1` [Hydrochloride salt, 2-(3-{6-[2-(2,4-dichloro-phenyl)-ethylamino]-2-methoxy-pyrimidin-4-yl}-phenyl)-2-methyl-propionic acid], for which the “Solubility (PBS pH 7.4, 25° C., μg/mL)” value in series [1] amounted to 5 μg/mL.
With `COc1nc(NCCc2ccc(Cl)cc2Cl)cc(-c2cccc(C(C)(C)C(=O)O)c2)n1` [Free form, 2-(3-{6-[2-(2,4-dichloro-phenyl)-ethylamino]-2-methoxy-pyrimidin-4-yl}-phenyl)-2-methyl-propionic acid], the “Solubility (PBS pH 7.4, 25° C., μg/mL)” value in series [1] is under 1 μg/mL. For the same compound, the “Solubility in FaSSIF (37° C., ug/mL)” value in series [2] was 14 µg/mL (≈ 30.4 µM).
On to `COc1nc(NCCc2ccc(Cl)cc2Cl)cc(-c2cccc(C(C)(C)C(=O)O)c2)n1` [Dihydrogen phosphate salt, Dihydrogen phosphate salt of 2-(3-{6-[2-(2,4-Dichloro-phenyl)-ethylamino]-2-methoxy-pyrimidin-4-yl}-phenyl)-2-methyl-propionic acid], for which the “Solubility (PBS pH 7.4, 25° C., μg/mL)” value in series [1] is given as 15 μg/mL. For the same compound, the “weight gain during the sorption (DVS)” value in series [3] is given as about 0.9%. Also, the “Solubility in FaSSIF (37° C., ug/mL)” value in series [2] was 266 µg/mL.
